Data as given in PubChem BioAssay AID1963975 (Molecular Pharmacology Branch, DTP, NCI, 2024).

System: 624824-186-R-J2-PDC multicell spheroids, viability
Test: Anticancer human tumor 624824-186-R-J2-PDC patient-derived colon adenocarcinoma cell line growth inhibition [PI3K]
Conditions: for viability, T/C: stronger effect = lower value
How it was run: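 Multi-cell spheroids combine tumor cells with HUVEC and human MSCs, treated with targeted agents alone or with inavolisib, alpelisib, duvelisib or copanlisib. Concentrations fall in half-log steps from at or near clinical Cmax, or from 10 microM where Cmax is unknown; viability read-out.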

[1] = curve of first compound, second compound 0.0316 µM
[2] = curve of first compound, second compound 0.1 µM
[3] = curve of first compound, second compound 0.316 µM
[4] = curve of first compound, second compound 1 µM
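Note: spheroids exposed to agents for 7 days before viability read.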
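Throughout, for viability, T/C: 100% = DMSO vehicle treated spheroids.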

Cn1nccc1Nc1nccc(-c2ccn(C(CO)c3ccc(Cl)c(F)c3)c(=O)c2)n1 (centres undefined) + COc1c(OCCCN2CCOCC2)ccc2c3n(c(=NC(=O)c4cnc(N)nc4)nc12)CCN3
IC50 (curve of first compound, second compound 0.00316 µM): > 10000 nM | IC50 (curve of first compound, second compound 0.01 µM): > 10000 nM | IC50 [1]: 370 nM | IC50 [2]: 138 nM | IC50 [3]: 53.5 nM | IC50 [4]: 37.4 nM | viability, T/C (second compound 0.00316 µM, first compound 0.0316 µM): 102% | viability, T/C (second compound 0.00316 µM, first compound 0.1 µM): 86.5% | viability, T/C (second compound 0.00316 µM, first compound 0.316 µM): 78.2% | viability, T/C (second compound 0.00316 µM, first compound 1 µM): 75.5% | viability, T/C (second compound 0.00316 µM, first compound 3.16 µM): 82.7% | viability, T/C (second compound 0.00316 µM, first compound 10 µM): 81.2% | viability, T/C (second compound 0.01 µM, first compound 0.0316 µM): 102% | viability, T/C (second compound 0.01 µM, first compound 0.1 µM): 71.9% | viability, T/C (second compound 0.01 µM, first compound 0.316 µM): 74.2% | viability, T/C (second compound 0.01 µM, first compound 1 µM): 67% | viability, T/C (second compound 0.01 µM, first compound 3.16 µM): 66.7% | viability, T/C (second compound 0.01 µM, first compound 10 µM): 50.5% | viability, T/C (second compound 0.0316 µM, first compound 0.0316 µM): 85.7% | viability, T/C (second compound 0.0316 µM, first compound 0.1 µM): 59% | viability, T/C (second compound 0.0316 µM, first compound 0.316 µM): 58.9% | viability, T/C (second compound 0.0316 µM, first compound 1 µM): 37.1% | viability, T/C (second compound 0.0316 µM, first compound 3.16 µM): 33.6% | viability, T/C (second compound 0.0316 µM, first compound 10 µM): 26.5% | viability, T/C (second compound 0.1 µM, first compound 0.0316 µM): 69.5% | viability, T/C (second compound 0.1 µM, first compound 0.1 µM): 53.3% | viability, T/C (second compound 0.1 µM, first compound 0.316 µM): 39.1% | viability, T/C (second compound 0.1 µM, first compound 1 µM): 30.9% | viability, T/C (second compound 0.1 µM, first compound 3.16 µM): 26.6% | viability, T/C (second compound 0.1 µM, first compound 10 µM): 15.6% | viability, T/C (second compound 0.316 µM, first compound 0.0316 µM): 55.3% | viability, T/C (second compound 0.316 µM, first compound 0.1 µM): 42.7% | viability, T/C (second compound 0.316 µM, first compound 0.316 µM): 36.3% | viability, T/C (second compound 0.316 µM, first compound 1 µM): 22.8% | viability, T/C (second compound 0.316 µM, first compound 3.16 µM): 15.1% | viability, T/C (second compound 0.316 µM, first compound 10 µM): 11.8% | viability, T/C (second compound 1 µM, first compound 0.0316 µM): 51.5% | viability, T/C (second compound 1 µM, first compound 0.1 µM): 42.9% | viability, T/C (second compound 1 µM, first compound 0.316 µM): 36.8% | viability, T/C (second compound 1 µM, first compound 1 µM): 26.5% | viability, T/C (second compound 1 µM, first compound 3.16 µM): 14.9% | viability, T/C (second compound 1 µM, first compound 10 µM): 7.14%

Cn1cnc2c(F)c(Nc3ccc(Br)cc3Cl)c(C(=O)NOCCO)cc21 + Cc1nc(NC(=O)N2CCCC2C(N)=O)sc1-c1ccnc(C(C)(C)C(F)(F)F)c1
IC50 [1]: > 3000 nM | IC50 [2]: > 3000 nM | IC50 [3]: > 3000 nM | IC50 [4]: > 3000 nM | IC50 (curve of first compound, second compound 3.16 µM): 690 nM | IC50 (curve of first compound, second compound 10 µM): 83.6 nM | viability, T/C (second compound 0.0316 µM, first compound 0.00949 µM): 90.2% | viability, T/C (second compound 0.0316 µM, first compound 0.03 µM): 68.3% | viability, T/C (second compound 0.0316 µM, first compound 0.0949 µM): 78% | viability, T/C (second compound 0.0316 µM, first compound 0.3 µM): 91.2% | viability, T/C (second compound 0.0316 µM, first compound 0.949 µM): 89.4% | viability, T/C (second compound 0.0316 µM, first compound 3 µM): 76.4% | viability, T/C (second compound 0.1 µM, first compound 0.00949 µM): 82.8% | viability, T/C (second compound 0.1 µM, first compound 0.03 µM): 79.7% | viability, T/C (second compound 0.1 µM, first compound 0.0949 µM): 72.9% | viability, T/C (second compound 0.1 µM, first compound 0.3 µM): 78.5% | viability, T/C (second compound 0.1 µM, first compound 0.949 µM): 83.1% | viability, T/C (second compound 0.1 µM, first compound 3 µM): 77.4% | viability, T/C (second compound 0.316 µM, first compound 0.00949 µM): 86.7% | viability, T/C (second compound 0.316 µM, first compound 0.03 µM): 71.8% | viability, T/C (second compound 0.316 µM, first compound 0.0949 µM): 74.3% | viability, T/C (second compound 0.316 µM, first compound 0.3 µM): 70.5% | viability, T/C (second compound 0.316 µM, first compound 0.949 µM): 77.7% | viability, T/C (second compound 0.316 µM, first compound 3 µM): 66.7% | viability, T/C (second compound 1 µM, first compound 0.00949 µM): 90.3% | viability, T/C (second compound 1 µM, first compound 0.03 µM): 61.8% | viability, T/C (second compound 1 µM, first compound 0.0949 µM): 66.6% | viability, T/C (second compound 1 µM, first compound 0.3 µM): 62.7% | viability, T/C (second compound 1 µM, first compound 0.949 µM): 77.5% | viability, T/C (second compound 1 µM, first compound 3 µM): 51.5% | viability, T/C (second compound 3.16 µM, first compound 0.00949 µM): 82.2% | viability, T/C (second compound 3.16 µM, first compound 0.03 µM): 73.8% | viability, T/C (second compound 3.16 µM, first compound 0.0949 µM): 79.6% | viability, T/C (second compound 3.16 µM, first compound 0.3 µM): 63.8% | viability, T/C (second compound 3.16 µM, first compound 0.949 µM): 44.6% | viability, T/C (second compound 3.16 µM, first compound 3 µM): 22.2% | viability, T/C (second compound 10 µM, first compound 0.00949 µM): 63% | viability, T/C (second compound 10 µM, first compound 0.03 µM): 58.4% | viability, T/C (second compound 10 µM, first compound 0.0949 µM): 43.1% | viability, T/C (second compound 10 µM, first compound 0.3 µM): 44.5% | viability, T/C (second compound 10 µM, first compound 0.949 µM): 17.7% | viability, T/C (second compound 10 µM, first compound 3 µM): 1.93%

C#Cc1c(F)ccc2cc(O)cc(-c3ncc4c(N5CC6CCC(C5)N6)nc(OCC56CCCN5CC(F)C6)nc4c3F)c12 (centres undefined)
viability, T/C (compound 0.0316 µM): 94.5% [middle of 4 runs] | viability, T/C (compound 0.316 µM): 97% [middle of 4 runs] | viability, T/C (compound 3.16 µM): 84.7% [middle of 4 runs] | viability, T/C (compound 10 µM): 86.3% [middle of 4 runs] | IC50 (curve of compound): > 10000 nM
